Assay results taken from ChEMBL document CHEMBL4431306, “Gamma Secretase Modulators: New Alzheimer's Drugs on the Horizon?” (J Med Chem, 2016).

What was measured:
Gamma-secretase [1] = assay: Modulation of gamma-secretase in human SH-SY5Y cells expressing human APP751 assessed as reduction in amyloid beta 42 production after 18 to 22 hrs by sandwich ELISA; assay type: cell-based
Mus musculus [2] = assay: Reduction in amyloid beta 42 levels in Tg 2576 mouse brain at 50 to 100 mg/kg administered via oral gavage for 3 days by LC-MS/MS analysis; assay type: functional
Gamma-secretase [3] = assay: Modulation of gamma-secretase (unknown origin) assessed as reduction in amyloid beta 42 production by ELISA; assay type: protein-complex assay, Homo sapiens
Gamma-secretase [4] = assay: Modulation of gamma-secretase in human H4 cells expressing human APP751 assessed as reduction in amyloid beta 42 production after 16 to 18 hrs by sandwich ELISA; assay type: cell-based
Gamma-secretase [5] = assay: Modulation of gamma-secretase in human H4 cells expressing APP Swedish mutant assessed as inhibition of amyloid beta (1 to 42 residues) production; assay type: cell-based
Gamma-secretase [6] = assay: Modulation of gamma-secretase in human SK-N-BE(2) cells expressing human APP695 assessed as reduction in amyloid beta 42 production incubated overnight by sandwich immunoassay; assay type: cell-based
Mus musculus [7] = assay: Reduction in amyloid beta 42 levels in mouse brain at 30 mg/kg, po administered as single dose measured 4 hrs post dose by electrochemiluminescence assay; assay type: functional
Mus musculus [8] = assay: Reduction in amyloid beta 42 levels in mouse brain at 10 mg/kg, po administered as single dose measured 4 hrs post dose by electrochemiluminescence assay; assay type: functional
Gamma-secretase [9] = assay: Modulation of gamma-secretase in human SH-SY5Y cells expressing human APP751 assessed as reduction in amyloid beta 42 production after 24 hrs by sandwich ELISA; assay type: cell-based
Gamma-secretase [10] = assay: Modulation of gamma-secretase in human H4 cells expressing human APP695 assessed as reduction in amyloid beta 42 production after 22 hrs by electrochemiluminescence assay; assay type: cell-based
Mus musculus [11] = assay: Reduction in amyloid beta 42 levels in mouse brain at 30 mg/kg, po administered as single dose measured 4 hrs post dose by ELISA; assay type: functional
Mus musculus [12] = assay: Increase in amyloid beta 38 levels in mouse brain at 30 mg/kg, po administered as single dose measured 4 hrs post dose by ELISA; assay type: functional
Gamma-secretase [13] = assay: Modulation of gamma-secretase in human SH-SY5Y cells expressing human APP751 assessed as reduction in amyloid beta 42 production after 16 to 18 hrs by ELISA; assay type: cell-based
Mus musculus [14] = assay: Reduction in amyloid beta (1 to 42 residues) AUC in triple transgenic mouse brain at 30 mg/kg administered via oral gavage measured up to 24 hrs by UPLC-MS-MS analysis; assay type: functional
Mus musculus [15] = assay: Reduction in amyloid beta (1 to 42 residues) AUC in triple transgenic mouse brain at 100 mg/kg administered via oral gavage measured up to 24 hrs by UPLC-MS-MS analysis; assay type: functional
Rattus norvegicus = assay: Reduction in amyloid beta (1 to 42 residues) AUC in Sprague-Dawley rat brain at 10 mg/kg administered via oral gavage measured up to 24 hrs by UPLC-MS-MS analysis; assay type: functional
Homo sapiens [16] = assay: Reduction in amyloid beta 42 levels in human plasma at 250 mg, po administered as single dose measured over 24 hrs post dose by sandwich enzyme immunoassay; assay type: functional
Homo sapiens [17] = assay: Reduction in amyloid beta (1 to 42 residues) […] in human plasma at 250 mg, po administered as single dose measured up to 24 hrs relative to control; assay type: functional
Homo sapiens [18] = species: Homo sapiens; assay: Modulation of gamma-secretase in human H4 cells expressing human APP695 assessed as inhibition of amyloid beta 42 production at 10 uM after 16 hrs by sandwich ELISA; assay type: functional
Gamma-secretase [19] = assay: Modulation of gamma-secretase in human H4 cells expressing human APP695 assessed as inhibition of amyloid beta 42 production after 16 hrs by sandwich ELISA; assay type: cell-based

SMILES: CCN(CC)c1ccc(Nc2nc(-c3ccc(-n4ccnc4)cc3)cs2)c(C)c1
- EC50 (Gamma-secretase [1]): 1500 nM

SMILES: CCc1cc(Nc2nc(-c3ccc(-n4cnc(C)c4)c(F)c3)cs2)c(C)cc1C
- inhibition (INH) (Mus musculus [2]): 30 - 40%

SMILES: CC(=O)O[C@@H]([C@H]1C[C@@H](C)C2=C(O1)[C@H](O)[C@@]1(C)[C@@H]3CC[C@H]4C(C)(C)[C@@H](O[C@@H]5OC[C@@H](O)[C@H](O)[C@H]5O)CC[C@@]45C[C@@]35CC[C@]21C)C(C)(C)O
- EC50 (Gamma-secretase [3]): 100 nM

SMILES: COc1cc(N2CCC(Nc3ncc4c(n3)N(c3ccccc3)CCO4)CC2)ccn1
- EC50 (Gamma-secretase [4]): 25 nM

SMILES: CNc1nc(Cc2ccccc2)nc(Nc2ccc(-n3cnc(C)c3)c(OC)c2)n1
- EC50 (Gamma-secretase [5]): 29 nM

SMILES: CCn1cc(C(C)N2C(=O)c3ccc(-n4cnc(C)c4)c(=O)n3C[C@H]2C)c2cc(Cl)c(F)cc21 (some centres not stated)
- EC50 (Gamma-secretase [6]): 10 nM
- inhibition in vivo at 30 mg/kg (Mus musculus [7]): 61%

SMILES: Cc1cn(-c2ccc3n(c2=O)C[C@@H](C)N(C(C)c2coc4cc(F)c(C(F)(F)F)cc24)C3=O)cn1 (some centres not stated)
- EC50 (Gamma-secretase [6]): 6 nM
- inhibition in vivo at 10 mg/kg (Mus musculus [8]): 42%

SMILES: CCn1nc2c(c1Nc1nc(-c3ccc(-n4cnc(C)c4)cc3)cs1)CCCC2
- EC50 (Gamma-secretase [9]): 347 nM

SMILES: CCn1nc2c(c1Nc1nc(-c3ccc(-n4cnc(C)c4)nc3)cs1)CCCC2
- EC50 (Gamma-secretase [9]): 1300 nM

SMILES: CCN1C(=O)C2CCCCCN2c2nc(Nc3ccc(-n4cnc(C)c4)c(OC)c3)ncc21 (configuration not stated)
- EC50 (Gamma-secretase [10]): 46 nM

SMILES: COc1cc2[nH]c(-c3cn4c(n3)C(c3cccc(F)c3C)OCC4)cc2cc1C#N (configuration not stated)
- EC50 (Gamma-secretase [6]): 20 nM
- inhibition in vivo at 30 mg/kg (Mus musculus [11]): 66%
- Activity (Mus musculus [12]): 40%

SMILES: CCn1nc2c(c1Nc1nc(-c3ccc(-n4cnc(C)c4)c(OC)n3)cs1)CCCC2
- EC50 (Gamma-secretase [9]): 30 nM

SMILES: Cc1cn(-c2ccc3n(c2=O)CC2CCC(Cc4cc(C(F)(F)F)cc(C(F)(F)F)c4)N2C3=O)cn1 (configuration not stated)
- EC50 (Gamma-secretase [6]): 50 nM

SMILES: COc1cc2[nH]c(-c3cn4c(n3)C(c3ccccc3C(F)(F)F)OCC4)cc2cc1C#N (configuration not stated)
- EC50 (Gamma-secretase [6]): 45 nM
- inhibition in vivo at 30 mg/kg (Mus musculus [11]): 57%
- Activity (Mus musculus [12]): 41%

SMILES: COc1cc(Nc2ncc3c(n2)N(c2cc(F)cc(F)c2)CCO3)ccc1-n1cnc(C)c1
- EC50 (Gamma-secretase [4]): 14 nM

SMILES: COc1cc(Nc2ncc3c(n2)N(C)C2(CCCC2)C(=O)N3CC(F)(F)F)ccc1-n1cnc(C)c1
- EC50 (Gamma-secretase [10]): 22 nM

SMILES: COc1cc(Nc2ncc3c(n2)N(C)C2(CC2)CO3)ccc1-n1cnc(C)c1
- EC50 (Gamma-secretase [4]): 49 nM

SMILES: COc1cc(N2CCC(Nc3ncc4c(n3)N(CC(F)(F)F)CCO4)CC2)ccn1
- EC50 (Gamma-secretase [4]): 105 nM

SMILES: COc1cc2[nH]c(-c3cn4c(n3)C(c3ccccc3Cl)OCC4)cc2cc1C#N (configuration not stated)
- EC50 (Gamma-secretase [6]): 21 nM
- inhibition in vivo at 30 mg/kg (Mus musculus [11]): 73%
- Activity (Mus musculus [12]): 10%

SMILES: COc1cc(-c2csc(N3CCCn4nc5c(c43)CCCC5)n2)ccc1-n1cnc(C)c1
- EC50 (Gamma-secretase [13]): 6 nM

SMILES: COc1cc(Nc2ncc3c(n2)N(c2ccccc2)CCO3)ccc1-n1cnc(C)c1
- EC50 (Gamma-secretase [4]): 39 nM

SMILES: Cc1cc([C@@H]2CC[C@@H](Nc3ncc4c(n3)N(c3ccccc3Cl)CCO4)CO2)ccn1
- EC50 (Gamma-secretase [4]): 41 nM

SMILES: COc1cc(Nc2nc3c(c(N4CCCCC4)n2)SC2(CCC2)C3)ccc1-n1cnc(C)c1
- EC50 (Gamma-secretase [10]): 90 nM

SMILES: COc1cc(Nc2ncc3c(n2)N2CCCC2CO3)ccc1-n1cnc(C)c1 (configuration not stated)
- EC50 (Gamma-secretase [4]): 71 nM

SMILES: COc1cc(Nc2nc3n(n2)CCCC[C@H]3c2ccc(F)cc2)ccc1-n1cnc(C)c1
- EC50 (Gamma-secretase [5]): 6 nM
- inhibition in vivo at 30 mg/kg (Mus musculus [14]): 31%
- inhibition in vivo at 100 mg/kg (Mus musculus [15]): 55%
- inhibition in vivo at 10 mg/kg (Rattus norvegicus): 47%

SMILES: COc1cc(Nc2ncc3c(n2)N(CC(F)(F)F)CCO3)ccc1-n1cnc(C)c1
- EC50 (Gamma-secretase [4]): 101 nM

SMILES: COc1cc(Nc2ncc3c(n2)N(C)[C@@H](c2ccccc2)CO3)ccc1-n1cnc(C)c1
- EC50 (Gamma-secretase [4]): 16 nM

SMILES: COc1nc(/C=C/c2nc3n(n2)CCC[C@H]3c2ccccc2C(F)(F)F)ccc1-n1cnc(C)c1 [E-2212]
- inhibition (INH) (Homo sapiens [16]): 54%
- inhibition (INH) (Homo sapiens [17]): 44%

SMILES: C[C@H](CCC(=O)O)[C@H]1CC[C@H]2[C@@H]3CC[C@@H]4C[C@H](O)CC[C@]4(C)[C@H]3CC[C@]12C [LITHOCHOLIC ACID]
- inhibition at 10 µM (Homo sapiens [18]): 62%

SMILES: C[C@H](CCC(=O)O)[C@H]1CC[C@H]2[C@@H]3CC[C@@H]4CCCC[C@]4(C)[C@H]3CC[C@]12C [URSOCHOLANIC ACID]
- EC50 (Gamma-secretase [19]): 5700 nM
